From PubChem BioAssay (NCI)
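These data come from cells grown in 96-well plates and exposed to compound for 48 hours at five concentrations. The concentration for full growth arrest is given as TGI.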

Assays:
Experiment in all cases: NCI tumour cell line growth inhibition, 48 h
NCI-H23 lung = system: NCI-H23 lung
CCRF-CEM leukemia = system: CCRF-CEM leukemia
TK-10 renal = system: TK-10 renal
SW-620 colon = system: SW-620 colon
OVCAR-4 ovarian = system: OVCAR-4 ovarian
HCT-15 colon = system: HCT-15 colon
HL-60(TB) leukemia = system: HL-60(TB) leukemia
K-562 leukemia = system: K-562 leukemia
HS 578T breast = system: HS 578T breast
SNB-19 CNS = system: SNB-19 CNS
IGROV1 ovarian = system: IGROV1 ovarian
LOX IMVI melanoma = system: LOX IMVI melanoma
KM12 colon = system: KM12 colon
A549 NSCLC = system: A549 NSCLC
T-47D breast = system: T-47D breast
HOP-62 NSCLC = system: HOP-62 NSCLC
MDA-N = system: MDA-N
HCT-116 colon = system: HCT-116 colon
OVCAR-3 ovarian = system: OVCAR-3 ovarian
NCI-H522 lung = system: NCI-H522 lung
786-0 renal = system: 786-0 renal
DU-145 prostate = system: DU-145 prostate
SF-268 CNS = system: SF-268 CNS
UACC-257 melanoma = system: UACC-257 melanoma
SN12C renal = system: SN12C renal
PC-3 prostate = system: PC-3 prostate
COLO 205 colon = system: COLO 205 colon
RXF 393 renal = system: RXF 393 renal
OVCAR-8 ovarian = system: OVCAR-8 ovarian
HOP-92 NSCLC = system: HOP-92 NSCLC
A498 renal = system: A498 renal
RPMI-8226 leukemia = system: RPMI-8226 leukemia
SF-295 CNS = system: SF-295 CNS
SK-MEL-28 melanoma = system: SK-MEL-28 melanoma
OVCAR-5 ovarian = system: OVCAR-5 ovarian
SF-539 CNS = system: SF-539 CNS
UO-31 renal = system: UO-31 renal
U251 CNS = system: U251 CNS
CAKI-1 renal = system: CAKI-1 renal
M14 melanoma = system: M14 melanoma
HCC-2998 colon = system: HCC-2998 colon
ACHN renal = system: ACHN renal
SK-MEL-5 melanoma = system: SK-MEL-5 melanoma
MOLT-4 leukemia = system: MOLT-4 leukemia
EKVX NSCLC = system: EKVX NSCLC
BT-549 breast = system: BT-549 breast
NCI-H460 lung = system: NCI-H460 lung
HT29 colon = system: HT29 colon
MCF7 breast = system: MCF7 breast
UACC-62 melanoma = system: UACC-62 melanoma
SR leukemia = system: SR leukemia
SK-MEL-2 melanoma = system: SK-MEL-2 melanoma
MALME-3M melanoma = system: MALME-3M melanoma
NCI/ADR-RES ovarian = system: NCI/ADR-RES ovarian
SNB-75 CNS = system: SNB-75 CNS
MDA-MB-435 = system: MDA-MB-435
MDA-MB-231 breast = system: MDA-MB-231 breast
NCI-H226 lung = system: NCI-H226 lung
SK-OV-3 ovarian = system: SK-OV-3 ovarian

## COc1cc(C2c3cc4c(cc3OC(N3CCOCC3)C2C)OCO4)ccc1O (stereo unspecified)
NCI-H23 lung
  TGI: > 95.7 µM
CCRF-CEM leukemia
  TGI: > 91.8 µM
TK-10 renal
  TGI: > 100 µM
SW-620 colon
  TGI: > 100 µM
OVCAR-4 ovarian
  TGI: > 100 µM
HCT-15 colon
  TGI: > 100 µM
HL-60(TB) leukemia
  TGI: 23.6 µM
K-562 leukemia
  TGI: 33 µM
HS 578T breast
  TGI: 41.9 µM
SNB-19 CNS
  TGI: > 100 µM
IGROV1 ovarian
  TGI: > 100 µM
LOX IMVI melanoma
  TGI: > 58.9 µM
KM12 colon
  TGI: > 100 µM
A549 NSCLC
  TGI: > 100 µM
T-47D breast
  TGI: > 78.2 µM
HOP-62 NSCLC
  TGI: > 63.8 µM
MDA-N
  TGI: 4.41 µM
HCT-116 colon
  TGI: 50.4 µM
OVCAR-3 ovarian
  TGI: 45.1 µM
NCI-H522 lung
  TGI: 58.4 µM
786-0 renal
  TGI: > 100 µM
DU-145 prostate
  TGI: > 100 µM
SF-268 CNS
  TGI: > 100 µM
UACC-257 melanoma
  TGI: > 100 µM
SN12C renal
  TGI: > 100 µM
PC-3 prostate
  TGI: > 100 µM
COLO 205 colon
  TGI: > 100 µM
RXF 393 renal
  TGI: 27.6 µM
OVCAR-8 ovarian
  TGI: > 100 µM
HOP-92 NSCLC
  TGI: > 100 µM
A498 renal
  TGI: 51.4 µM
RPMI-8226 leukemia
  TGI: 19.9 µM
SF-295 CNS
  TGI: 38.2 µM
SK-MEL-28 melanoma
  TGI: > 100 µM
OVCAR-5 ovarian
  TGI: > 100 µM
SF-539 CNS
  TGI: 35.6 µM
UO-31 renal
  TGI: > 92.8 µM
U251 CNS
  TGI: > 100 µM
CAKI-1 renal
  TGI: 71.1 µM
M14 melanoma
  TGI: > 63.5 µM
HCC-2998 colon
  TGI: 52.5 µM
ACHN renal
  TGI: > 100 µM
SK-MEL-5 melanoma
  TGI: > 80.4 µM
MOLT-4 leukemia
  TGI: 60.7 µM
EKVX NSCLC
  TGI: > 100 µM
BT-549 breast
  TGI: > 100 µM
NCI-H460 lung
  TGI: 55.5 µM
HT29 colon
  TGI: > 100 µM
MCF7 breast
  TGI: > 83 µM
UACC-62 melanoma
  TGI: > 100 µM
SR leukemia
  TGI: > 68.9 µM
SK-MEL-2 melanoma
  TGI: 33.6 µM
MALME-3M melanoma
  TGI: > 100 µM
NCI/ADR-RES ovarian
  TGI: 52.2 µM
SNB-75 CNS
  TGI: > 58 µM
MDA-MB-435
  TGI: > 26.3 µM

## CC[C@@H]1CC[C@@H]2[C@H](CC[C@]3(C)[C@@H](OC(C)=O)CC[C@@H]23)[C@H]1COC(C)=O
NCI-H23 lung
  TGI: 79.1 µM
CCRF-CEM leukemia
  TGI: 41.2 µM
TK-10 renal
  TGI: > 100 µM
SW-620 colon
  TGI: > 100 µM
MDA-MB-231 breast
  TGI: 56.6 µM
OVCAR-4 ovarian
  TGI: 75 µM
HCT-15 colon
  TGI: 56 µM
HL-60(TB) leukemia
  TGI: 39.2 µM
K-562 leukemia
  TGI: 36.2 µM
HS 578T breast
  TGI: > 100 µM
SNB-19 CNS
  TGI: > 100 µM
IGROV1 ovarian
  TGI: > 100 µM
LOX IMVI melanoma
  TGI: 31.5 µM
KM12 colon
  TGI: 60 µM
A549 NSCLC
  TGI: 59.2 µM
NCI-H226 lung
  TGI: 52.5 µM
T-47D breast
  TGI: > 100 µM
HOP-62 NSCLC
  TGI: > 100 µM
MDA-N
  TGI: 62.2 µM
HCT-116 colon
  TGI: 31.7 µM
OVCAR-3 ovarian
  TGI: 34.6 µM
NCI-H522 lung
  TGI: 56.1 µM
786-0 renal
  TGI: > 100 µM
DU-145 prostate
  TGI: > 100 µM
SF-268 CNS
  TGI: 92.5 µM
UACC-257 melanoma
  TGI: 65.6 µM
SN12C renal
  TGI: 60.9 µM
PC-3 prostate
  TGI: > 100 µM
COLO 205 colon
  TGI: 36.8 µM
RXF 393 renal
  TGI: 45.9 µM
OVCAR-8 ovarian
  TGI: 82 µM
HOP-92 NSCLC
  TGI: 69.8 µM
A498 renal
  TGI: 94.4 µM
RPMI-8226 leukemia
  TGI: 48.7 µM
SF-295 CNS
  TGI: 65.1 µM
SK-MEL-28 melanoma
  TGI: > 100 µM
OVCAR-5 ovarian
  TGI: 73.8 µM
SF-539 CNS
  TGI: 67.9 µM
UO-31 renal
  TGI: > 100 µM
U251 CNS
  TGI: 45 µM
CAKI-1 renal
  TGI: > 100 µM
M14 melanoma
  TGI: 76.6 µM
HCC-2998 colon
  TGI: 33.4 µM
ACHN renal
  TGI: > 100 µM
SK-MEL-5 melanoma
  TGI: 32.7 µM
MOLT-4 leukemia
  TGI: 37 µM
EKVX NSCLC
  TGI: 73.6 µM
BT-549 breast
  TGI: 87.9 µM
NCI-H460 lung
  TGI: 45.9 µM
HT29 colon
  TGI: 39.5 µM
MCF7 breast
  TGI: > 100 µM
UACC-62 melanoma
  TGI: 88 µM
SK-MEL-2 melanoma
  TGI: 34.5 µM
SK-OV-3 ovarian
  TGI: > 100 µM
MALME-3M melanoma
  TGI: 35.8 µM
NCI/ADR-RES ovarian
  TGI: 76 µM
SNB-75 CNS
  TGI: > 100 µM
MDA-MB-435
  TGI: 50.2 µM

## O=c1ccc(-c2ccccc2)n[nH]1
NCI-H23 lung
  TGI: > 100 µM
CCRF-CEM leukemia
  TGI: > 100 µM
TK-10 renal
  TGI: > 100 µM
SW-620 colon
  TGI: > 100 µM
MDA-MB-231 breast
  TGI: > 100 µM
OVCAR-4 ovarian
  TGI: > 100 µM
HCT-15 colon
  TGI: > 100 µM
HL-60(TB) leukemia
  TGI: > 100 µM
K-562 leukemia
  TGI: > 100 µM
HS 578T breast
  TGI: > 100 µM
SNB-19 CNS
  TGI: > 100 µM
IGROV1 ovarian
  TGI: > 100 µM
LOX IMVI melanoma
  TGI: > 100 µM
KM12 colon
  TGI: > 100 µM
A549 NSCLC
  TGI: > 100 µM
T-47D breast
  TGI: > 100 µM
HOP-62 NSCLC
  TGI: > 100 µM
MDA-N
  TGI: > 100 µM
HCT-116 colon
  TGI: > 100 µM
OVCAR-3 ovarian
  TGI: > 100 µM
NCI-H522 lung
  TGI: > 100 µM
786-0 renal
  TGI: > 100 µM
DU-145 prostate
  TGI: > 100 µM
SF-268 CNS
  TGI: > 100 µM
UACC-257 melanoma
  TGI: > 100 µM
SN12C renal
  TGI: > 100 µM
PC-3 prostate
  TGI: > 100 µM
RXF 393 renal
  TGI: > 100 µM
OVCAR-8 ovarian
  TGI: > 100 µM
HOP-92 NSCLC
  TGI: > 100 µM
A498 renal
  TGI: > 100 µM
SF-295 CNS
  TGI: > 100 µM
SK-MEL-28 melanoma
  TGI: > 100 µM
OVCAR-5 ovarian
  TGI: > 100 µM
UO-31 renal
  TGI: > 100 µM
U251 CNS
  TGI: > 100 µM
CAKI-1 renal
  TGI: > 100 µM
M14 melanoma
  TGI: > 100 µM
HCC-2998 colon
  TGI: > 100 µM
ACHN renal
  TGI: > 100 µM
SK-MEL-5 melanoma
  TGI: > 100 µM
MOLT-4 leukemia
  TGI: > 100 µM
EKVX NSCLC
  TGI: > 100 µM
BT-549 breast
  TGI: > 100 µM
NCI-H460 lung
  TGI: > 100 µM
HT29 colon
  TGI: > 100 µM
UACC-62 melanoma
  TGI: > 100 µM
SR leukemia
  TGI: > 100 µM
SK-MEL-2 melanoma
  TGI: > 100 µM
MALME-3M melanoma
  TGI: > 100 µM
NCI/ADR-RES ovarian
  TGI: > 100 µM
MDA-MB-435
  TGI: > 100 µM
